Earlier results in US8580317B2, “Compositions and methods for treating acne” (Revance Therapeutics, Inc., priority 2005, dated 2013).

Columns and labels:
[1] = benzoyl peroxide topically applied
[2] = test system: propionibacterium acnes (P. Acnes); conditions: background statement

SMILES: O=C(OOC(=O)c1ccccc1)c1ccccc1 [benzoyl peroxide]
- share of the population that experiences skin allergies [1]: about 10%
- kills P. acnes compared with other medications [2]: better than any other medication on the market
